Data from patent US8124637B2, “Anthra [1, 2-d]imidazole-6,11-dione derivatives, preparation method and application thereof” (National Defense Medical Center, priority 2010, dated 2012).

Tests used:
[1] = system: K562; test: NCI 60-cell drug screen, one dose; type: cell-based, human; conditions: Leukemia K562, 1.00E−5 Molar
[2] = system: CAKI-1; test: NCI 60-cell drug screen, one dose; type: cell-based, human; conditions: Renal Cancer CAKI-1, 1.00E−5 Molar
[3] = system: RXF 393; test: NCI 60-cell drug screen, one dose; type: cell-based, human; conditions: Renal Cancer RXF 393, 1.00E−5 Molar
[4] = target: T1, telomerase (total cell lysates of lung cancer cell line H1299) (Homo sapiens, UniProt O14746); test: Telomere repeat amplification protocol (TRAP) assay; type: biochemical; conditions: preliminary screening at 10 μM, gel
T1 construct: As a source of telomerase, the total cell lysates derived from lung cancer cell line H1299 cells were used; endogenous in cells; host or cells: H1299 lung cancer cells (total cell lysate)
T1 sequence (O14746 whole entry): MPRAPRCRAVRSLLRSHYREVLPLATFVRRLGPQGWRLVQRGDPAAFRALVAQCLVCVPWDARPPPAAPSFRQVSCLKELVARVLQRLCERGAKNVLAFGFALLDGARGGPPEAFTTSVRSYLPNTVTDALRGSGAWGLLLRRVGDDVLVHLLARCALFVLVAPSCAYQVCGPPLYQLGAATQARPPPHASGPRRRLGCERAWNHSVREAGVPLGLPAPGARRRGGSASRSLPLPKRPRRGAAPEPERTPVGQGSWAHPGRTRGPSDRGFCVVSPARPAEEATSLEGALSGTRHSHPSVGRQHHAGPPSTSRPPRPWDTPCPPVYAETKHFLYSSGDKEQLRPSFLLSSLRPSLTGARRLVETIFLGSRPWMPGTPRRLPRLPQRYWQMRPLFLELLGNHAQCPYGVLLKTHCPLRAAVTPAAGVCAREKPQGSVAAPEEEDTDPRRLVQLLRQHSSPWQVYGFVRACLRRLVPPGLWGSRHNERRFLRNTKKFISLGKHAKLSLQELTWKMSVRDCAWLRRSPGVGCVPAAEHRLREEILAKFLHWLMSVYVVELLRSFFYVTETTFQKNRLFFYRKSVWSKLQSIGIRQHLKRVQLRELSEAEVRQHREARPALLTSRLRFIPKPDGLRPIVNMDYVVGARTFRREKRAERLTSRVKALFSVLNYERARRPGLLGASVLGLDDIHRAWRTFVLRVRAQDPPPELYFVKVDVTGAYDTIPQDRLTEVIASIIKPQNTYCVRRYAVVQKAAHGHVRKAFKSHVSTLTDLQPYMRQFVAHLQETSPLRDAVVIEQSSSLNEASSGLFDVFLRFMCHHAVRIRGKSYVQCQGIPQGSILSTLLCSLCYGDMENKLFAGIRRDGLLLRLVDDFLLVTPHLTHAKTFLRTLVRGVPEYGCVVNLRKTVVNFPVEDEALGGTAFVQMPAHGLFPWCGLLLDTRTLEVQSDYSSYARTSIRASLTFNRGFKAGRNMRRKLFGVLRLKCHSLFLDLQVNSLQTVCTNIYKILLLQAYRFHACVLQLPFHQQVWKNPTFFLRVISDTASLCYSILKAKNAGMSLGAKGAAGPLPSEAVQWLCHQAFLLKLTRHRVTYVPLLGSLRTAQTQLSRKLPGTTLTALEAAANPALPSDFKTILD
T1 sequence (O60832 whole entry partner): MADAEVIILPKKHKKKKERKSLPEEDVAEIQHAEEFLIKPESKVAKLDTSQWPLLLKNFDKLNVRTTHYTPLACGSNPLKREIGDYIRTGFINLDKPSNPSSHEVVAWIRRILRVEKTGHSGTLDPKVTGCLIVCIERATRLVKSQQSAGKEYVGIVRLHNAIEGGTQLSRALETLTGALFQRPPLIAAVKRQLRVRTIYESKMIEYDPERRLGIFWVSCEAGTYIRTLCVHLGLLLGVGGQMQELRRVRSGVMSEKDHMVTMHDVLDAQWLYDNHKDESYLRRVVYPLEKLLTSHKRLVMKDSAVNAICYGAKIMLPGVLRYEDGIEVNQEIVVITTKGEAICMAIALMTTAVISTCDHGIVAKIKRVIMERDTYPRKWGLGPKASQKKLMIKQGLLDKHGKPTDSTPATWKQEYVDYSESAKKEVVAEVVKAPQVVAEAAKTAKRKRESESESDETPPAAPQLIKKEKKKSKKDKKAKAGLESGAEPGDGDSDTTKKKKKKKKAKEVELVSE
T1 sequence (Q9NX24 whole entry partner): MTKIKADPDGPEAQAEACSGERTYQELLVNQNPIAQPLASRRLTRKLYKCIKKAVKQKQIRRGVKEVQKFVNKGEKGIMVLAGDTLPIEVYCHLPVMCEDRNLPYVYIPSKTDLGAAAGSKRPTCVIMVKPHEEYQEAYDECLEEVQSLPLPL
T1 sequence (Q9NPE3 whole entry partner): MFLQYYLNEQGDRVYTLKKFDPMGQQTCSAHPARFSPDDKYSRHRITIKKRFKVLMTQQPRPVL
T1 sequence (Q9NY12 whole entry partner): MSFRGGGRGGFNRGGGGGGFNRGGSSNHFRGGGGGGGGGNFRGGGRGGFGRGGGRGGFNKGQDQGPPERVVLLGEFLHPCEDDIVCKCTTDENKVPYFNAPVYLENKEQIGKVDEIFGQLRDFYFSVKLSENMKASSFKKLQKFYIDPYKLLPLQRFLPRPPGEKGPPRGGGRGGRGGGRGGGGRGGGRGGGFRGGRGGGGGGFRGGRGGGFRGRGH
Experimental: Telomerase activity was detected by a modified version of the general TRAP protocol. Telomerase products were resolved by 10% polyacrylamide gel electrophoresis and visualized by staining with SYBER Green. As a source of telomerase, the total cell lysates derived from lung cancer cell line H1299 cells were used. Protein concentration of the lysates was assayed using Bio-Rad protein assay kit using BSA standards.
In the FIGS. 3A, 3B and FIG. 4, a positive control group (P) used water that had been sterilized three times in the assay; while a negative control group (N) used RNase A (CLONTECH) (5 μL, 0.1 mg/mL) in the assay.
In the positive control group (P), due to the absence of inhibitor, the telomerase could extend the telomere, such that some longer telomere fragments could be observed; while there was not observed in the negative control group (N). In the result of TRAP assay (FIG. 3A to 3B), compounds with a concentration of 10 μM was used as the preliminary screening. In the gel, standard compound A was 1,2-diaminoanthraquinone, D was doxorubicin, and M was mitoxantrone.

Structure (SMILES)	Growth Percent [1]	Growth Percent [2]	Growth Percent [3]	inhibition effect/activity of telomerase (TRAP) [4]
O=C1c2ccccc2C(=O)c2c1ccc1nc(CN3CCN(c4ccccn4)CC3)[nH]c21 [CL28, 2-((4-(pyridin-2-yl)piperazin-1-yl)methyl)-1H-anthra[1,2-d]imidazole-6,11-dione]	83.48%	68.83%	89.67%	–
CN1CCN(Cc2nc3ccc4c(c3[nH]2)C(=O)c2ccccc2C4=O)CC1 [CL24, 2-((4-methylpiperazin-1-yl)methyl)-1H-anthra[1,2-d]imidazole-6,11-dione]	–	–	–	more significant inhibition effect/activity of telomerase
